Here are results for two compounds from article PMC11377542, “An artificial intelligence accelerated virtual screening platform for drug discovery” (Nature Communications, 2024).

Values joined by “and” are separate entries in the source; they are usually repeats but may differ in a detail not shown here. Identical values can stand only once. Like-named read-outs stand apart in the source and are kept apart here.

The target in data set [1] is T1, KLHDC2 (Homo sapiens, UniProt Q9Y2U9).
T1 construct: human KLHDC2 (UniProt: Q9Y2U9, amino acid 1–362); made in house; host or cells: HighFive insect cells (baculovirus, pFastBac)
T1 sequence (Q9Y2U9 1-362): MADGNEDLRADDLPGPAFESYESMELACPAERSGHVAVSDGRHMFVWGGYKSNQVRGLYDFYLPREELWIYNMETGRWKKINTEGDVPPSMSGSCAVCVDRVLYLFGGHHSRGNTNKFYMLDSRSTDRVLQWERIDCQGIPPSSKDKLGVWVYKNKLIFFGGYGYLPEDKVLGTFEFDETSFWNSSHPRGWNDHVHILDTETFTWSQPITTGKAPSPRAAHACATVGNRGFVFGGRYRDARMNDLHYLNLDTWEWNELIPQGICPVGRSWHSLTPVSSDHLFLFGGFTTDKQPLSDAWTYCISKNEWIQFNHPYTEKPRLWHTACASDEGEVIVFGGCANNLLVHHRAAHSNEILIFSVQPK
Briefly: AlphaLISA competition assay (displacement of SelK C-end degron peptide from GST-KLHDC2). In kind it is binding. To be noted: IC50, competition with biotinylated 12 aa SelK degron peptide; 12-point titration, n = 3 technical replicates. The source says:
We took the top-ranked 1000 compounds and filtered out compounds with low predicted solubility, unsatisfied hydrogen bonds in the bound conformation, and followed by similarity clustering to reduce the redundancy in ligand structures. A total of 54 molecules that passed the filtering and clustering were manually examined for favorable interactions and geometries in PyMol[34]. Finally, 37 compounds were chosen for chemical synthesis. Out of these, 29 compounds were successfully synthesized (Supplementary Fig. 13) and characterized in an AlphaLISA competition assay, in which each compound was tested for its ability to compete with a diglycine-containing SelK C-end degron peptide for binding KLHDC2. […] This single digit μM IC50 was further confirmed in a competition assay using BioLayer Interferometry (Supplementary Fig. 14).
The kelch repeat domain of human KLHDC2 (UniProt: Q9Y2U9, amino acid 1–362) was subcloned into the pFastBac vector with an N-terminally fused glutathione-S-transferase (GST), and a TEV-cleavage site. A recombinant baculovirus was produced and amplified three times in Sf9 monolayer cells to produce P4. The P4 virus was used to infect HighFive suspension insect cell cultures to produce the recombinant GST-KLHDC2 protein. The cells were harvested 2–3 days post-infection, re-suspended, and lysed in lysis buffer (20 mM Tris, pH 8.0, 200 mM NaCl, 5 mM DTT) in the presence of protease inhibitors (1 μg/ml Leupeptin, 1 μg/ml Pepstatin and 100 μM PMSF) using a microfluidizer. The GST-KLHDC2 protein was isolated from the soluble cell lysate by PierceTM Glutathione Agarose (Thermo Scientific). For AlphaLISA competition assays, the GST-tagged KLHDC2 was further purified by Q Sepharose High-Performance resin (GE Healthcare). The NaCl eluates were subjected to a Superdex-200 size exclusion chromatography column (GE Healthcare). All samples were flash-frozen in liquid nitrogen for storage prior to use. For protein crystallization, the kelch repeat domain of human KLHDC2 (amino acids 22–362) was subcloned into the pET vector with an N-terminally fused His-elongation factor Ts (TSF) and a TEV-cleavage site. The His-TSF-KLHDC2 protein was overexpressed and purified from BL21 (DE3) E. coli cells. Bacterial cells transformed with the pET-based expression plasmid were grown in LB broth to an OD600 of 0.8–1 and induced with 0.5 mM IPTG. Cells were harvested, re-suspended, and lysed in lysis buffer (20 mM Tris, pH 8.0, 200 mM NaCl, 20 mM imidazole) in the presence of protease inhibitors (1 μg mL–1 leupeptin, 1 μg mL–1 pepstatin and 100 μM phenylmethylsulfonyl fluoride) using a microfluidizer. The His-TSF-KLHDC2 protein was isolated from the soluble cell lysate by HisPurTM Ni-NTA Superflow Agarose (Thermo Fisher Scientific, Waltham, Massachusetts). After TEV cleavage of the His-TSF, KLHDC2 was further purified by Mono Q™ 5/50 GL (GE Healthcare, Chicago, Illinois). The NaCl eluates were subjected to Superdex-200 size-exclusion chromatography (GE Healthcare). Native mass spectrometry was used to confirm KLHDC2 in its apo form. The samples were concentrated by ultrafiltration to 10–22 mg mL−1. All samples were flash-frozen in liquid nitrogen for storage prior to use.
AlphaLISA assays for determining and measuring protein-protein interactions were performed using an EnSpire reader (PerkinElmer). GST-tagged KLHDC2 was attached to anti-GST AlphaLISA acceptor beads. Synthetic N-terminal biotinylated 12 aa SelK degron peptide ([Biotin]HLRGSPPPMAGG[C) (Bio-Synthesis, Inc.) was immobilized to streptavidin-coated AlphaLISA donor beads. The donor and acceptor beads were brought into proximity by the interactions between the SelK peptide and KLHDC2. Excitation of the donor beads by a laser beam of 680 nm promotes the formation of singlet oxygen. When an acceptor bead is in close proximity, the singlet oxygen reacts with thioxene derivatives in the acceptor beads and causes the emission of 615 nm photons, which are detected as the binding signal. […]

Data set [2] has as its target T1, KLHDC2. Briefly: Octet BioLayer Interferometry competition assay (biotinylated SelK peptide / GST-KLHDC2). In kind it is binding. To be noted: BLI competition, C29 at 0-30 µM, 50 nM GST-KLHDC2. On the procedure:
Octet BioLayer interferometry competition assay monitoring the ability of C29 to interfere with the binding between the biotinylated 12 aa SelK peptide and GST-KLHDC2 was monitored using the Octet Red 96 (ForteBio, Pall Life Sciences) following the manufacturer’s procedures. The reaction was carried out in black 96 well plates maintained at 30 °C. The reaction volume was 200 μL in each well. The Octet buffer used throughout the experiment contained 20 mM Tris-HCl, 200 mM NaCl, 5 mM DTT and 0.1% BSA, pH 8.0. The Loading buffer contained the Octet buffer and biotinylated 12 aa SelK peptide, at a final concentration of 200 nM. […] The binding of the analyte GST-KLHDC2 in the presence or absence of the C29, to the optical probes was measured simultaneously using instrumental defaults for 225 sec as the probes were then incubated in Association buffer. The dissociation was measured for 600 sec while the probes were incubated in Octet buffer. […] The data were analyzed by the Octet data analysis software version 9.0.. […] The IC50 value was calculated using Prism 8 (GraphPad) from the nonlinear regression curve fit of the response values vs. log competitor concentration.
Supplementary Fig. 14 | BioLayer Interferometry competition assay of compound 29. […] The binding of the analyte GST-KLHDC2 in the presence or absence of the C29, to the loaded optical probes was measured in the association buffer. […]

Data set [3] concerns the target T2, hNaV1.7 channel (Homo sapiens, UniProt Q15858).
T2 construct: expressed in transfected cells
Briefly: Whole-cell patch-clamp electrophysiology on hNaV1.7 stably expressed in HEK-293 cells. The note with it: for IC50: mean. The data set is classed as cell-based. The source says:
We first clustered the top 100,000 ranked small molecules, then applied filters on the top 1000 cluster representative molecules. A total of 160 molecules that passed the clustering and filtering were examined manually. To ensure the chemical novelty of our selection, we specifically excluded molecules that contain the known arylsulfonamide warhead or structurally resemble antihistamines or beta-receptor blockers. Finally, ten molecules with Tanimoto similarities of less than 0.33 to the known inhibitors of NaV1.7 from the ChEMBL database[43],[44] were selected for synthesis. Of these, nine were successfully synthesized (Supplementary Fig. 16), and their activities were measured using the whole-cell patch-clamp electrophysiology assay on hNaV1.7 channel stably expressed in HEK-293 cells as described in Methods.
HEK-293 cells stably expressing human NaV1.5 and NaV1.7 were obtained from Dr. Chris Lossin (UC Davis, CA). HEK293 cells stably expressing HERG (hKv11.1) were a gift from Craig January (University of Wisconsin, Madison). Cells were cultured in complete DMEM supplemented with 10% FBS, 1% penicillin/streptomycin, and G418. All manual whole-cell patch-clamp recordings were performed at room temperature (22–24 °C) using an EPC-10 amplifier (HEKA Electronik, Lambrecht/Pfalz, Germany) on cells that were grown to 60–80% confluency, lifted with TrypLE, and plated onto poly-l-lysine–coated coverslips. External bath solution contains (in mM) 160 NaCl, 4.5 KCl, 2 CaCl2, 1 MgCl2, 10 HEPES (pH 7.4 and 305 mOsm) as. Patch pipettes were heat-pulled from soda lime glass (micro-hematocrit tubes, Kimble Chase, Rochester, NY) and had resistances of 2–3 MΩ when filled with an internal solution. Patch recordings of NaV1.5 and NaV1.7 channels were done using a cesium fluoride-based internal solution containing (in mM) 10 NaF, 110 CsF, 20 CsCl, 10 HEPES, 2 EGTA, (pH 7.4, 310 mOsm). Recordings of HERG channels were conducted using a potassium fluoride-based internal solution with added ATP (160 mM KF, 2 mM MgCl2, 10 mM EGTA, 10 mM HEPES, 4 mM NaATP, pH = 7.2 and 300–320 mOsm). Data acquisition and analysis were performed with Pulse-PulseFit (HEKA Electronik GmbH, Germany), IgorPro (WaveMetrics, Portland, OR), and Origin 9.0 software (OriginLab Corporation, Northampton, MA). To investigate specifically the inactivated state block of NaV1.7 and NaV1.5, holding potentials were set at the V1/2 of maximal inactivation (− 70 mV and − 80 mV, respectively) before voltage stepping to − 150 mV for 20 msec, and then 0 mV for 50 msec to elicit inward currents. Inhibition of currents in the resting state was recorded using a holding potential of − 120 mV. Control test currents were monitored for up to 5–10 min to ensure that the amplitude and kinetics of the response were stable. Series resistance was compensated to 80–90% and linear leak currents and capacitance artifacts were corrected using a P/4 subtraction method. The pulse interval was 0.1 Hz. For all experiments, stock solutions of the drugs were prepared fresh from 10 mM stocks in DMSO and test solutions prepared in external bath solutions were applied to individual cells into the recording bath. […] The percent reduction of HERG tail current amplitude by the compounds was determined. The percent of a block of tail current amplitude by the drugs was determined and data are shown as mean +/− SD (n = 3–4 per data point).

Data set [4] has as its target T3, human NaV1.5 (Homo sapiens, UniProt Q14524).
T3 construct: expressed in transfected cells
Briefly: Whole-cell patch-clamp electrophysiology on human NaV1.5 stably expressed in HEK-293 cells. The data set is classed as cell-based. To be noted: -80 mV holding potential (inactivated state); mean. How it is done: (§1) HEK-293 cells stably expressing human NaV1.5 and NaV1.7 were obtained from Dr. Chris Lossin (UC Davis, CA). HEK293 cells stably expressing HERG (hKv11.1) were a gift from Craig January (University of Wisconsin, Madison). Cells were cultured in complete DMEM supplemented with 10% FBS, 1% penicillin/streptomycin, and G418. All manual whole-cell patch-clamp recordings were performed at room temperature (22–24 °C) using an EPC-10 amplifier (HEKA Electronik, Lambrecht/Pfalz, Germany) on cells that were grown to 60–80% confluency, lifted with TrypLE, and plated onto poly-l-lysine–coated coverslips. External bath solution contains (in mM) 160 NaCl, 4.5 KCl, 2 CaCl2, 1 MgCl2, 10 HEPES (pH 7.4 and 305 mOsm) as. Patch pipettes were heat-pulled from soda lime glass (micro-hematocrit tubes, Kimble Chase, Rochester, NY) and had resistances of 2–3 MΩ when filled with an internal solution. […] Inhibition of currents in the resting state was recorded using a holding potential of − 120 mV. Control test currents were monitored for up to 5–10 min to ensure that the amplitude and kinetics of the response were stable. […] The percent reduction of HERG tail current amplitude by the compounds was determined. The percent of a block of tail current amplitude by the drugs was determined and data are shown as mean +/− SD (n = 3–4 per data point).

Data set [5] concerns the target T4, HERG (hKv11.1) (Homo sapiens, UniProt Q12809).
T4 construct: expressed in transfected cells
Briefly: Whole-cell patch-clamp electrophysiology on HEK293 cells stably expressing HERG, tail current. The data set is classed as cell-based. To be noted: mean. How it is done: as §1

T2 sequence (Q15858 whole entry): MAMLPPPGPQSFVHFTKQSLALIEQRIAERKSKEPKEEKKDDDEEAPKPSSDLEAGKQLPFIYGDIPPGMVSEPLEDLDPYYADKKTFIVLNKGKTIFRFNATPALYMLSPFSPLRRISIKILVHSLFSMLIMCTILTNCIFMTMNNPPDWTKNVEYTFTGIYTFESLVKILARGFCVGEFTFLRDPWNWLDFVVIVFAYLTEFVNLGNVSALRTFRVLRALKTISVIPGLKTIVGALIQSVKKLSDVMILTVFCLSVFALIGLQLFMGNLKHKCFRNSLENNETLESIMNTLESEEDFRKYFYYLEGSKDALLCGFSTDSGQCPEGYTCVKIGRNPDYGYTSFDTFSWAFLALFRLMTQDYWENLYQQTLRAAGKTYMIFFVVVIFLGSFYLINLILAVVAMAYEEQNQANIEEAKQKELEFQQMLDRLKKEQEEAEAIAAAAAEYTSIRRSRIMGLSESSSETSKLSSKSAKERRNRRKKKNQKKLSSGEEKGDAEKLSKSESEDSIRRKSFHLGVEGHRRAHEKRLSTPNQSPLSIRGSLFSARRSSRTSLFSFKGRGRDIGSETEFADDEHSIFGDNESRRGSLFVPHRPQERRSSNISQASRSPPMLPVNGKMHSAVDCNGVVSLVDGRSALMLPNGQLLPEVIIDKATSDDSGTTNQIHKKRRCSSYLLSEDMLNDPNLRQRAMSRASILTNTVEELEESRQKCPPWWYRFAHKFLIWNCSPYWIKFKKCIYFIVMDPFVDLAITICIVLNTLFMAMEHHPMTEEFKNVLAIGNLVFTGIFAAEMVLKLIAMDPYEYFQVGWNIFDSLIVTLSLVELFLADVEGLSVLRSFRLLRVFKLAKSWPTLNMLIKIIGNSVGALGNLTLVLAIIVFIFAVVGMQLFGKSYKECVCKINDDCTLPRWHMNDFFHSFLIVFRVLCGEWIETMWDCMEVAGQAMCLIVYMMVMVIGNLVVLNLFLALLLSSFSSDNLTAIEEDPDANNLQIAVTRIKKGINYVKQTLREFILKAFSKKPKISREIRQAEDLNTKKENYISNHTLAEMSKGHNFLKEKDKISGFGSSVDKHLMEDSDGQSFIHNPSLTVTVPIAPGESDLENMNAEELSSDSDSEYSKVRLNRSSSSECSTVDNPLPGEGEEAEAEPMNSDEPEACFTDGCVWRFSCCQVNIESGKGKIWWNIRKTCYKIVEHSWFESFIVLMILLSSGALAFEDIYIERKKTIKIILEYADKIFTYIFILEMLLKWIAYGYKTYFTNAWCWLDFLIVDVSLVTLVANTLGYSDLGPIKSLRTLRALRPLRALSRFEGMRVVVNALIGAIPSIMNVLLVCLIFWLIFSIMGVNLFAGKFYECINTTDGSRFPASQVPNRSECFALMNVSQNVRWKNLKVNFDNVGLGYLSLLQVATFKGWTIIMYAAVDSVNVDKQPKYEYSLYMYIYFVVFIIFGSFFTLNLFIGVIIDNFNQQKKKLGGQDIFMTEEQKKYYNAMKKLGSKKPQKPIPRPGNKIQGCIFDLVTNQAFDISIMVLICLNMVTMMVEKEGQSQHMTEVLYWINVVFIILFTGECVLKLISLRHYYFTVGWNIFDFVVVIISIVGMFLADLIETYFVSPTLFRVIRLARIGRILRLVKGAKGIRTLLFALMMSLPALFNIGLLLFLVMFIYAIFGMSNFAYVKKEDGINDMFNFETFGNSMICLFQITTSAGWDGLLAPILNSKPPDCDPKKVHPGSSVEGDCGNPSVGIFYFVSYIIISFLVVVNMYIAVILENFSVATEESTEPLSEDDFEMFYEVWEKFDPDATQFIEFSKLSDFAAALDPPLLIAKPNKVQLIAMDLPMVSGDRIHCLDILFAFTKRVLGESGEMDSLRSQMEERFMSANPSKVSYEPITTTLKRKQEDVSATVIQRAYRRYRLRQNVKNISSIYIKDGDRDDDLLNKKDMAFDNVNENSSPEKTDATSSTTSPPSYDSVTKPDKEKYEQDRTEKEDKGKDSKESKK
T3 sequence (Q14524 whole entry): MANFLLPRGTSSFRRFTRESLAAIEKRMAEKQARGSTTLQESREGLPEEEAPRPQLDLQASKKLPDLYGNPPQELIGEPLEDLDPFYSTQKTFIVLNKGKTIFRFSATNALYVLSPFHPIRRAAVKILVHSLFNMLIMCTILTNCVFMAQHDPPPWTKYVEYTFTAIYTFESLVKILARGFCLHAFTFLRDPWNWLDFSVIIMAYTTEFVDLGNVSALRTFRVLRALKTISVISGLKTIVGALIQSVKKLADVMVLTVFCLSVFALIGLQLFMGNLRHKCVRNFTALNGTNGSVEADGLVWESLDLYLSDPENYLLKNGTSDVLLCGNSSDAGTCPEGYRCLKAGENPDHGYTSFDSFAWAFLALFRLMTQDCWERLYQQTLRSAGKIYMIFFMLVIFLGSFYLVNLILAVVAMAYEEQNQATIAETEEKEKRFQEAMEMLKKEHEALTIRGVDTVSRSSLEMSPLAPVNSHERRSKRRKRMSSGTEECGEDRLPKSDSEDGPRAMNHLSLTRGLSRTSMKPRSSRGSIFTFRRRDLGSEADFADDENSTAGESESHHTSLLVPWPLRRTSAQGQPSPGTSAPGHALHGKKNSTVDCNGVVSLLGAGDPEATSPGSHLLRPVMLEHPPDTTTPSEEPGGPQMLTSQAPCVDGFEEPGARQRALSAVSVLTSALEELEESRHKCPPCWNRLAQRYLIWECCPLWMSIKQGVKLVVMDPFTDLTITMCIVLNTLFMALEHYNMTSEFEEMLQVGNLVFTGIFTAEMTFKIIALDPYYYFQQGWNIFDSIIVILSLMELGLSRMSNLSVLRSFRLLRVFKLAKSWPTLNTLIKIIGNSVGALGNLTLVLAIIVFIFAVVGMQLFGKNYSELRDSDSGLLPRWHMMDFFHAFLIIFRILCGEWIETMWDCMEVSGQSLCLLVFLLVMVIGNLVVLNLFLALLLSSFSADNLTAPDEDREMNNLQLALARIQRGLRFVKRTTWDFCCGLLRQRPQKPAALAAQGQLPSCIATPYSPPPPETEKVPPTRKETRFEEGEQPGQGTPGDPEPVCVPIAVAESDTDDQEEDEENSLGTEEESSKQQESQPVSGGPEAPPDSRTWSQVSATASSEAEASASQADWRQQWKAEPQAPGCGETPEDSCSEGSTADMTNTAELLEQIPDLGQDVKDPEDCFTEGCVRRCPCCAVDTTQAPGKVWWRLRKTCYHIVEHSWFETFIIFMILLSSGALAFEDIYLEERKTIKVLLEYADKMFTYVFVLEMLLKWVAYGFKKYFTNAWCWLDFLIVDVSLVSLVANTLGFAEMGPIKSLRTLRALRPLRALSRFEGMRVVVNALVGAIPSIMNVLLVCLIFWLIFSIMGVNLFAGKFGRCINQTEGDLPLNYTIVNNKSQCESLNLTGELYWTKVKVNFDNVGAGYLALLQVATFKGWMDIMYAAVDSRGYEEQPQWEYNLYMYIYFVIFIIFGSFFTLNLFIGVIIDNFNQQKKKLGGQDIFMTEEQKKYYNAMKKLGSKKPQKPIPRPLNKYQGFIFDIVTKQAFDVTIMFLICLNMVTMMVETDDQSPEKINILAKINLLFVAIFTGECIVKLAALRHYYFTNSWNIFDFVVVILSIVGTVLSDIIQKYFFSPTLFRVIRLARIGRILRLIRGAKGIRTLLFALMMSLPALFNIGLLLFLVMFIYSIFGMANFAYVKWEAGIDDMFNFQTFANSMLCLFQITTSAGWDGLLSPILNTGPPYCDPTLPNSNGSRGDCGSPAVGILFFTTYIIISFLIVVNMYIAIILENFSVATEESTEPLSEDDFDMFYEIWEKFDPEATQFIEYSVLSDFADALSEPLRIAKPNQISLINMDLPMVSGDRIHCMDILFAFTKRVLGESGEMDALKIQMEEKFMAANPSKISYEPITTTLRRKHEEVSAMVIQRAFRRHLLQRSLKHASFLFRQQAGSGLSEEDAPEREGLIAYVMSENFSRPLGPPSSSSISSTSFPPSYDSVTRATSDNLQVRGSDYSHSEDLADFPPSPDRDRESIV
T4 sequence (Q12809 whole entry): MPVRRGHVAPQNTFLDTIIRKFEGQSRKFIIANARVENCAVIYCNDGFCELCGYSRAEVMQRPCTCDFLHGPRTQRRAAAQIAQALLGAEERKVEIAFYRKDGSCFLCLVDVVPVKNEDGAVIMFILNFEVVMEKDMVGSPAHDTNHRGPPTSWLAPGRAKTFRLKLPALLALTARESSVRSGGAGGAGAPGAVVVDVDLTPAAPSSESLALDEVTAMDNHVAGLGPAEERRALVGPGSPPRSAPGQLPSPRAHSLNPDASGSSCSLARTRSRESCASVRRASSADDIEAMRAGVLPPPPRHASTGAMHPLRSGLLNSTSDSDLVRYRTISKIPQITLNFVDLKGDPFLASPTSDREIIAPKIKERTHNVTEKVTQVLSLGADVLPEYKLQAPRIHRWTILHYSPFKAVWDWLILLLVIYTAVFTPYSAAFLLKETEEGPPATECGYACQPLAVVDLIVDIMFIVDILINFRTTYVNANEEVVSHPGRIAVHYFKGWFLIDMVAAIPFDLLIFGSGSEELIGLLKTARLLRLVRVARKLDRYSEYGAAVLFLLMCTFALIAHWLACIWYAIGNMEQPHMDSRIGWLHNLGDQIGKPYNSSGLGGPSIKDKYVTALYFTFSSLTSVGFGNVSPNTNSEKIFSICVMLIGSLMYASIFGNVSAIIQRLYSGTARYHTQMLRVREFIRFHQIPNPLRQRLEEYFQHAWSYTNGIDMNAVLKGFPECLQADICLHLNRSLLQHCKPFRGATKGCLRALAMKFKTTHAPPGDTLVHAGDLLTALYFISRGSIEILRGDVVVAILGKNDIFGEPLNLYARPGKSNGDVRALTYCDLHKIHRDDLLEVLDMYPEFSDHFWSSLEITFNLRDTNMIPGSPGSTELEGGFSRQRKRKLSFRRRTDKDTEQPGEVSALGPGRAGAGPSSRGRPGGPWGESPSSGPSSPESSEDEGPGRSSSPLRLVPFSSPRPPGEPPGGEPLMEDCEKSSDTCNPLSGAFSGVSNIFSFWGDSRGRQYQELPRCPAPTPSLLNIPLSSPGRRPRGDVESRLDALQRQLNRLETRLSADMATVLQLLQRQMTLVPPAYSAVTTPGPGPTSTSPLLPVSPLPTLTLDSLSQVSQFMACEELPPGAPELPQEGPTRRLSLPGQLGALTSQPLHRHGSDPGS

As for `CC(C)(C)c1ccc(CSCC(=O)NCc2cn(CC(=O)O)nn2)cc1` [Compound C29], the IC50 in data set [1] was ~3 µM and 2.9 µM; in data set [2], “single digit”.
Turning to `Cc1cc(C(C)(C)C)ccc1OCC(O)CNCc1cc(C)c(C)s1` (centres unmarked) [Compound Z8739902234, CC=1C=C(CNCC(O)COC=2C=CC(=CC2C)C(C)(C)C)SC1C], the IC50 was 1.33 µM and 1.3 µM in data set [3] (NaV1.7 inactivated state, -70 mV holding potential, read-out: inactivated-state IC50); 13.1 µM in data set [3] (NaV1.7 resting state, -120 mV holding potential, read-out: resting state IC50); 5.14 µM in data set [4]; 6.27 µM in data set [5]. Also, the “selectivity for hNaV1.7 versus hNaV1.5 and hERG channels” value in data set [3] (in words) is listed as “moderate selectivity”. Moreover, the “state dependence of NaV1.7 inhibition” value in data set [3] (inactivated versus resting state, in words) is “state dependent”.
